Assay results published in the supplement of paper PMC10307832.

Legend:
Assay in all cases: relative viability (nuclei count vs DMSO), 5 days (fraction); higher = more cells survive
NCI-H1651 = test system: NCI-H1651
Summary of the method: (§1)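 Lung cancer cell lines, seeded in 1536-well plates, were treated the following day by pin tool with a single drug or with five library-drug doses (not always all listed) in √10 steps on top of a fixed anchor-drug dose. Cells were fixed and nuclei stained in one step after 5 days, and nuclei were counted. Relative viability is the nuclei count for treated wells divided by that for vehicle wells, reported as medians of duplicate plates.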

SK-MES-1 = test system: SK-MES-1
Summary of the method: as §1

NCI-H1395 = test system: NCI-H1395
Summary of the method: as §1

LC-2-ad = test system: LC-2-ad
Summary of the method: as §1

PC-3 [JPC-3] = test system: PC-3 [JPC-3]
Summary of the method: as §1

NCI-H2342 = test system: NCI-H2342
Summary of the method: as §1

NCI-H1755 = test system: NCI-H1755
Summary of the method: as §1

NCI-H2228 = test system: NCI-H2228
Summary of the method: as §1

NCI-H1793 = test system: NCI-H1793
Summary of the method: as §1

NCI-H1437 = test system: NCI-H1437
Summary of the method: as §1

EMC-BAC-2 = test system: EMC-BAC-2
Summary of the method: as §1

NCI-H2347 = test system: NCI-H2347
Summary of the method: as §1

EKVX = test system: EKVX
Summary of the method: as §1

NCI-H1944 = test system: NCI-H1944
Summary of the method: as §1

NCI-H1915 = test system: NCI-H1915
Summary of the method: as §1

NCI-H2087 = test system: NCI-H2087
Summary of the method: as §1

LK-2 = test system: LK-2
Summary of the method: as §1

CAL-12T = test system: CAL-12T
Summary of the method: as §1

LXF-289 = test system: LXF-289
Summary of the method: as §1

NCI-H661 = test system: NCI-H661
Summary of the method: as §1

NCI-H2085 = test system: NCI-H2085
Summary of the method: as §1

SK-LU-1 = test system: SK-LU-1
Summary of the method: as §1

COR-L 105 = test system: COR-L 105
Summary of the method: as §1

H3255 = test system: H3255
Summary of the method: as §1

NCI-H522 = test system: NCI-H522
Summary of the method: as §1

CCCCCCCCCCCC1=C(O)C(=O)C=C(O)C1=O [Embelin] + CCNC(=O)c1noc(-c2cc(C(C)C)c(O)cc2O)c1-c1ccc(CN2CCOCC2)cc1 [Luminespib] (partner 0.01 µM)
relative viability (NCI-H1651; first compound 0.08 µM): 0.953 | relative viability (NCI-H1651; first compound 0.8 µM): 0.944 | relative viability (NCI-H1651; first compound 2.53 µM): 0.977 | relative viability (NCI-H1651; first compound 8 µM): 0.886 | relative viability (SK-MES-1; first compound 0.08 µM): 0.723 | relative viability (SK-MES-1; first compound 0.8 µM): 1.05 | relative viability (SK-MES-1; first compound 2.53 µM): 0.918 | relative viability (SK-MES-1; first compound 8 µM): 0.695 | relative viability (NCI-H1395; first compound 0.08 µM): 0.741 | relative viability (NCI-H1395; first compound 0.8 µM): 0.928 | relative viability (NCI-H1395; first compound 2.53 µM): 0.783 | relative viability (NCI-H1395; first compound 8 µM): 0.631 | relative viability (LC-2-ad; first compound 0.08 µM): 0.892 | relative viability (LC-2-ad; first compound 0.8 µM): 1.28 | relative viability (LC-2-ad; first compound 2.53 µM): 1.1 | relative viability (LC-2-ad; first compound 8 µM): 0.806 | relative viability (PC-3 [JPC-3]; first compound 0.08 µM): 0.798 | relative viability (PC-3 [JPC-3]; first compound 0.8 µM): 0.752 | relative viability (PC-3 [JPC-3]; first compound 2.53 µM): 0.724 | relative viability (PC-3 [JPC-3]; first compound 8 µM): 0.599 | relative viability (NCI-H2342; first compound 0.08 µM): 0.758 | relative viability (NCI-H2342; first compound 0.8 µM): 0.902 | relative viability (NCI-H2342; first compound 2.53 µM): 0.826 | relative viability (NCI-H2342; first compound 8 µM): 0.645 | relative viability (NCI-H1755; first compound 0.08 µM): 0.257 | relative viability (NCI-H1755; first compound 0.8 µM): 0.603 | relative viability (NCI-H1755; first compound 2.53 µM): 0.637 | relative viability (NCI-H1755; first compound 8 µM): 0.421 | relative viability (NCI-H2228; first compound 0.08 µM): 0.148 | relative viability (NCI-H2228; first compound 0.8 µM): 0.13 | relative viability (NCI-H2228; first compound 2.53 µM): 0.228 | relative viability (NCI-H2228; first compound 8 µM): 0.151 | relative viability (NCI-H1793; first compound 0.08 µM): 0.175 | relative viability (NCI-H1793; first compound 0.8 µM): 0.192 | relative viability (NCI-H1793; first compound 2.53 µM): 0.207 | relative viability (NCI-H1793; first compound 8 µM): 0.186 | relative viability (NCI-H1437; first compound 0.08 µM): 1.17 | relative viability (NCI-H1437; first compound 0.8 µM): 1.17 | relative viability (NCI-H1437; first compound 2.53 µM): 1.08 | relative viability (NCI-H1437; first compound 8 µM): 0.622 | relative viability (EMC-BAC-2; first compound 0.08 µM): 1.14 | relative viability (EMC-BAC-2; first compound 0.8 µM): 1.38 | relative viability (EMC-BAC-2; first compound 2.53 µM): 1.22 | relative viability (EMC-BAC-2; first compound 8 µM): 1.29 | relative viability (NCI-H2347; first compound 0.08 µM): 0.73 | relative viability (NCI-H2347; first compound 0.8 µM): 0.489 | relative viability (NCI-H2347; first compound 2.53 µM): 0.686 | relative viability (NCI-H2347; first compound 8 µM): 0.62 | relative viability (EKVX; first compound 0.08 µM): 0.864 | relative viability (EKVX; first compound 0.8 µM): 0.888 | relative viability (EKVX; first compound 2.53 µM): 0.876 | relative viability (EKVX; first compound 8 µM): 0.966 | relative viability (NCI-H1944; first compound 0.08 µM): 0.726 | relative viability (NCI-H1944; first compound 0.8 µM): 0.849 | relative viability (NCI-H1944; first compound 2.53 µM): 0.882 | relative viability (NCI-H1944; first compound 8 µM): 0.78 | relative viability (NCI-H1915; first compound 0.08 µM): 0.818 | relative viability (NCI-H1915; first compound 0.8 µM): 0.819 | relative viability (NCI-H1915; first compound 2.53 µM): 0.853 | relative viability (NCI-H1915; first compound 8 µM): 0.892 | relative viability (NCI-H2087; first compound 0.08 µM): 0.162 | relative viability (NCI-H2087; first compound 0.8 µM): 0.186 | relative viability (NCI-H2087; first compound 2.53 µM): 0.141 | relative viability (NCI-H2087; first compound 8 µM): 0.172 | relative viability (LK-2; first compound 0.08 µM): 0.17 | relative viability (LK-2; first compound 0.8 µM): 0.281 | relative viability (LK-2; first compound 2.53 µM): 0.189 | relative viability (LK-2; first compound 8 µM): 0.198 | relative viability (CAL-12T; first compound 0.08 µM): 0.499 | relative viability (CAL-12T; first compound 0.8 µM): 0.69 | relative viability (CAL-12T; first compound 2.53 µM): 0.626 | relative viability (CAL-12T; first compound 8 µM): 0.189 | relative viability (LXF-289; first compound 0.08 µM): 0.548 | relative viability (LXF-289; first compound 0.8 µM): 0.619 | relative viability (LXF-289; first compound 2.53 µM): 0.781 | relative viability (LXF-289; first compound 8 µM): 0.751 | relative viability (NCI-H661; first compound 0.08 µM): 0.924 | relative viability (NCI-H661; first compound 0.8 µM): 1 | relative viability (NCI-H661; first compound 2.53 µM): 0.897 | relative viability (NCI-H661; first compound 8 µM): 0.85 | relative viability (NCI-H2085; first compound 0.08 µM): 0.458 | relative viability (NCI-H2085; first compound 0.8 µM): 0.463 | relative viability (NCI-H2085; first compound 2.53 µM): 0.469 | relative viability (NCI-H2085; first compound 8 µM): 0.4 | relative viability (SK-LU-1; first compound 0.08 µM): 0.206 | relative viability (SK-LU-1; first compound 0.8 µM): 0.186 | relative viability (SK-LU-1; first compound 2.53 µM): 0.182 | relative viability (SK-LU-1; first compound 8 µM): 0.204 | relative viability (COR-L 105; first compound 0.08 µM): 0.778 | relative viability (COR-L 105; first compound 0.8 µM): 0.894 | relative viability (COR-L 105; first compound 2.53 µM): 0.737 | relative viability (COR-L 105; first compound 8 µM): 0.624 | relative viability (H3255; first compound 0.08 µM): 0.848 | relative viability (H3255; first compound 0.8 µM): 0.954 | relative viability (H3255; first compound 2.53 µM): 0.935 | relative viability (H3255; first compound 8 µM): 0.965 | relative viability (NCI-H522; first compound 0.08 µM): 1.26 | relative viability (NCI-H522; first compound 0.8 µM): 1.2 | relative viability (NCI-H522; first compound 2.53 µM): 1.34 | relative viability (NCI-H522; first compound 8 µM): 1.12
